# Assay results as given in ChEMBL document CHEMBL1201862, “PubChem BioAssay data set” (2004).
#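 Tested at 5 concentrations; 48 h exposure; 96-well plates; endpoints linearly interpolated, else capped at highest concentration. GI50: concentration for 50% inhibition of growth.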 Activity calls are given as the source filed them. Rule as the data show it: active = GI50 up to about 1.1 µM and inactive = higher.
# Legend:
# Experiment in all cases: DTP human tumour cell line panel, 48 h
# [1] = test system: SK-MEL-5
# [2] = test system: HCT-15
# [3] = test system: K562
# [4] = test system: EKVX
# [5] = test system: A549
# [6] = test system: Malme-3M
# [7] = test system: NCI-H522
# [8] = test system: SW-620
# [9] = test system: SK-OV-3
# [10] = test system: OVCAR-5
# [11] = test system: UACC-257
# [12] = test system: U-251
# [13] = test system: NCI-H23
# [14] = test system: HCC 2998
# [15] = test system: HOP-92
# [16] = test system: HOP-18
# [17] = test system: 786-0
# [18] = test system: SNB-75
# [19] = test system: DLD-1
# [20] = test system: KM-20L2
# [21] = test system: SF-539
# [22] = test system: HOP-62
# [23] = test system: CCRF-CEM
# [24] = test system: HCT-116
# [25] = test system: OVCAR-3
# [26] = test system: UO-31
# [27] = test system: SK-MEL-2
# [28] = test system: CAKI-1
# [29] = test system: SF-295
# [30] = test system: HT-29
# [31] = test system: LXFL 529
# [32] = test system: NCI-H460
# [33] = test system: SK-MEL-28
# [34] = test system: SNB-19
# [35] = test system: OVCAR-4
# [36] = test system: RXF 631
# [37] = test system: ACHN
# [38] = test system: SN12C
# [39] = test system: M14
# [40] = test system: LOX IMVI
# [41] = test system: MOLT-4
# [42] = test system: IGROV-1
# [43] = test system: COLO 205
# [44] = test system: SNB-78
# [45] = test system: A498
# [46] = test system: HL-60
# [47] = test system: UACC-62
# [48] = test system: RPMI-8226
# [49] = test system: OVCAR-8
# [50] = test system: SF-268
# [51] = test system: TK-10
# [52] = test system: SR
# [53] = test system: NCI-H226
# [54] = test system: DMS-273
# [55] = test system: DMS-114
# [56] = test system: KM12
# [57] = test system: M19-MEL
# [58] = test system: RXF 393
smiles,measurement,setting,value
O=C(OCCOCBr)c1ccccc1,GI50,[1],> 100 µM (inactive)
same,GI50,[2],> 100 µM
same,GI50,[3],> 100 µM (inactive)
same,GI50,[4],> 100 µM (inactive)
same,GI50,[5],> 100 µM (inactive)
same,GI50,[6],> 100 µM (inactive)
same,GI50,[7],> 100 µM (inactive)
same,GI50,[8],> 100 µM (inactive)
same,GI50,[9],> 100 µM (inactive)
same,GI50,[10],> 100 µM (inactive)
same,GI50,[11],> 100 µM (inactive)
same,GI50,[12],> 100 µM (inactive)
same,GI50,[13],> 100 µM (inactive)
same,GI50,[14],> 100 µM (inactive)
same,GI50,[15],> 100 µM (inactive)
same,GI50,[16],> 100 µM (inactive)
same,GI50,[17],> 100 µM (inactive)
same,GI50,[18],> 100 µM (inactive)
same,GI50,[19],> 100 µM (inactive)
same,GI50,[20],> 100 µM (inactive)
same,GI50,[21],> 100 µM (inactive)
same,GI50,[22],> 100 µM (inactive)
same,GI50,[23],> 100 µM (inactive)
same,GI50,[24],> 100 µM (inactive)
same,GI50,[25],> 100 µM (inactive)
same,GI50,[26],> 100 µM (inactive)
same,GI50,[27],> 100 µM (inactive)
same,GI50,[28],> 100 µM (inactive)
same,GI50,[29],> 100 µM (inactive)
same,GI50,[30],> 100 µM (inactive)
same,GI50,[31],> 100 µM (inactive)
same,GI50,[32],> 100 µM (inactive)
same,GI50,[33],> 100 µM (inactive)
same,GI50,[34],> 100 µM (inactive)
same,GI50,[35],> 100 µM (inactive)
same,GI50,[36],> 100 µM (inactive)
same,GI50,[37],> 100 µM (inactive)
same,GI50,[38],> 100 µM (inactive)
same,GI50,[39],> 100 µM (inactive)
same,GI50,[40],> 100 µM (inactive)
same,GI50,[41],> 100 µM (inactive)
same,GI50,[42],> 100 µM (inactive)
same,GI50,[43],> 100 µM (inactive)
same,GI50,[44],> 100 µM (inactive)
same,GI50,[45],> 100 µM (inactive)
same,GI50,[46],> 100 µM (inactive)
same,GI50,[47],> 100 µM (inactive)
same,GI50,[48],> 100 µM (inactive)
same,GI50,[49],> 100 µM (inactive)
same,GI50,[50],> 100 µM (inactive)
same,GI50,[51],> 100 µM (inactive)
same,GI50,[52],> 100 µM (inactive)
same,GI50,[53],> 100 µM (inactive)
same,GI50,[54],> 100 µM (inactive)
same,GI50,[55],> 100 µM (inactive)
same,GI50,[56],> 100 µM (inactive)
C/N=C(\N)c1ccc(NC(=N)c2ccc(C(=N)Nc3ccc(/C(N)=N/C)cc3)cc2)cc1,GI50,[57],> 100 µM (inactive)
same,GI50,[1],> 100 µM (inactive)
same,GI50,[2],> 100 µM
same,GI50,[3],> 100 µM (inactive)
same,GI50,[5],> 100 µM (inactive)
same,GI50,[6],> 100 µM (inactive)
same,GI50,[7],> 100 µM (inactive)
same,GI50,[8],> 100 µM (inactive)
same,GI50,[9],> 100 µM (inactive)
same,GI50,[10],> 100 µM (inactive)
same,GI50,[11],> 100 µM (inactive)
same,GI50,[12],> 100 µM (inactive)
same,GI50,[15],76 µM (inactive)
same,GI50,[17],> 100 µM (inactive)
same,GI50,[18],> 100 µM (inactive)
same,GI50,[21],> 100 µM (inactive)
same,GI50,[22],> 100 µM (inactive)
same,GI50,[23],> 100 µM (inactive)
same,GI50,[25],> 100 µM (inactive)
same,GI50,[26],> 100 µM (inactive)
same,GI50,[27],> 100 µM (inactive)
same,GI50,[28],> 100 µM (inactive)
same,GI50,[29],> 100 µM (inactive)
same,GI50,[30],> 100 µM (inactive)
same,GI50,[31],> 100 µM (inactive)
same,GI50,[32],> 100 µM (inactive)
same,GI50,[33],> 100 µM (inactive)
same,GI50,[34],> 100 µM (inactive)
same,GI50,[35],> 100 µM (inactive)
same,GI50,[36],> 100 µM (inactive)
same,GI50,[37],> 100 µM (inactive)
same,GI50,[38],> 100 µM (inactive)
same,GI50,[39],> 100 µM (inactive)
same,GI50,[40],> 100 µM (inactive)
same,GI50,[41],> 100 µM (inactive)
same,GI50,[42],> 100 µM (inactive)
same,GI50,[43],> 100 µM (inactive)
same,GI50,[46],> 100 µM (inactive)
same,GI50,[47],> 100 µM (inactive)
same,GI50,[48],> 100 µM (inactive)
same,GI50,[49],> 100 µM (inactive)
same,GI50,[50],> 100 µM (inactive)
same,GI50,[51],> 100 µM (inactive)
same,GI50,[53],> 100 µM (inactive)
same,GI50,[54],> 100 µM (inactive)
same,GI50,[55],> 100 µM (inactive)
same,GI50,[56],> 100 µM (inactive)
same,GI50,[58],> 100 µM (inactive)
